Laboratory results reported in patent US11052065B2, “Compositions and methods for treating cancer with a combination of programmed death receptor (PD-1) antibodies and a CXCR2 antagonist” (Merck Sharp & Dohme Corp., priority 2017, dated 2021).

Test system: B16-F10 melanoma tumor
Test: Anti-tumor efficacy in mouse B16-F10 melanoma syngeneic tumor model
Format: in vivo, C57Bl/6 mice
Settings: single agent treatment groups (navarixin 300 mg/kg bid + isotype control; anti-PD-1 10 mg/kg + vehicle); 12 mice per group; FIGS. 3 and 4
Description: The combination anti-tumor efficacy of a CXCR2 antagonist and anti-mouse PD-1 antibody muDX400 was assessed in the B16-F10 melanoma tumor model, syngeneic to the C57Bl/6 strain. This experiment compared the anti-tumor response of tumor-bearing mice to treatment with one of three regimens: monotherapy with a murine anti-mouse PD-1 monoclonal antibody (Anti-PD-1), monotherapy with a CXCR2 antagonist (navarixin) and combination therapy with these two agents administered concurrently.
Tumor-bearing mice for this study were initiated by implanting 0.4×10^6 log-phase and sub-confluent B16-F10 cells on the right lower dorsal flank of 7-8 week old female C57Bl/6 mice with an average body weight of 18 grams. When the mean tumor volume in these mice reached ˜70 cubic mm (50 mm^3-80 mm^3), the tumor-bearing mice were randomized to 5 treatment groups of 12 mice per group:
(1) Isotype Control+Vehicle;
(2) Isotype Control+Navarixin (bid);
(4) Anti-PD-1+Navarixin (bid) and;
(5) Anti-PD-1+Navarixin (qd).
The monoclonal antibody against murine PD-1 was of the isotype IgG1. The isotype control was a mouse monoclonal antibody specific for adenoviral hexon 25 and was of the isotype IgG1. […] The tumor volume was assessed using Vernier calipers.

CC[C@@H](Nc1c(Nc2cccc(C(=O)N(C)C)c2O)c(=O)c1=O)c1ccc(C)o1 [navarixin, 2-hydroxy-N,N-dimethyl-3-{2-[[(R)-1-(5-methylfuran-2-yl)propyl]amino]-3,4-dioxocyclobut-1-enylamino}benzamide]
complete and partial regressions: not observed
